Common to all, as to type: biochemical
One test has as its target T1, Akt1 (Homo sapiens, UniProt P31749).
T1 construct: unspecified tag, removed (detagged) (cleaved yes); purchased SignalChem and Proteros (Akt1); Merck Millipore (PDK1) 14-452 (PDK1); none given for Akt1
Description: Akt activation assay (PDK1-mediated activation, LANCE Ultra crosstide TR-FRET), Akt1. Particulars: read-out: Biological Assay 1 IC50 (nM) Akt1. The method, then: (§1) Biological Assay 1: Akt Activation Assay
(§2) Addition of a Europium-labelled antibody specific to the phosphopeptide allows energy transfer from the Europium donor to the Ultra Ulight™ acceptor if close enough in proximity.
(§3) Full length active His6-tagged PDK1 was obtained from Merck Millipore (14-452).
(§4) 1× assay buffer (AB): 50 mM HEPES pH 7.5, 1 mM EGTA, 10 mM MgCl2, 0.01% Tween. Immediately before use, DTT to a concentration of 2 mM was added.
(§5) To prepare lipid vesicles: 1 mg/ml PtdIns(3,4,5)P3 solution (in 10 mM HEPES 7.5) was added to 16.7 mg/ml DOPS/DOPC mixture (in 10 mM HEPES pH 7.5) in a ratio of 1:8.3. MilliQ water was added to the solution to generate concentrations of 400 μM DOPS, 400 μM DOPC and 40 μM PtdIns(3,4,5)P3. The mixture was subjected to 5× freeze/thaw cycles and aliquots stored at −20° C.
(§6) 5 μL enzyme in 1×AB was incubated with 2.5 μL test compound. To start the reaction 2.5 μL reaction mix was added which consisted of PDK1, lipid preparations, crosstide and ATP in 1×AB. Final assay concentrations were as follows: 1% DMSO, 5 nM SignalChem Akt1/15 nM SignalChem Akt2/3 nM Signalchem Akt3/5 nM Proteros Akt1/5 nM proteros Akt2/5 nM Proteros Akt3, 5 nM PDK1, 5.5 μM DOPS, 5.5 μM DOPC, 0.55 μM PtdIns(3,4,5)P3, 100 μM ATP, 100 nM LANCE® Ultra Ulight™-Crosstide. After 30 min, the reaction was stopped using 5 μL 40 μM EDTA in 1× Detection buffer for 5 min. For detection, 5 μL 8 nM LANCE® Ultra Europium-anti-phospho-Crosstide antibody in 1× Detection buffer was added to each well and incubated for 1 h. Plates read with the EnVision® Multilabel Plate Reader, excitation at 320 nm and emission at 665 nm and 615 nm. Compound IC50 was determined using a 4-parameter equation.

Another test has as its target T2, Akt2 (Homo sapiens, UniProt P31751).
T2 construct: unspecified tag, removed (detagged) (cleaved yes); purchased SignalChem and Proteros (Akt2); Merck Millipore (PDK1) 14-452 (PDK1); none given for Akt2
Description: Akt activation assay (PDK1-mediated activation, LANCE Ultra crosstide TR-FRET), Akt2. Particulars: read-out: Biological Assay 1 IC50 (nM) Akt2. The method, then:
as §1, §2, §3, §4, §5, §6

For the next test, the target named is T3, Akt3 (Homo sapiens, UniProt Q9Y243).
T3 construct: unspecified tag, removed (detagged) (cleaved yes); purchased SignalChem and Proteros (Akt3); Merck Millipore (PDK1) 14-452 (PDK1); none given for Akt3
In words: Akt activation assay (PDK1-mediated activation, LANCE Ultra crosstide TR-FRET), Akt3. Particulars: read-out: Biological Assay 1 IC50 (nM) Akt3. How it is done: as §1, §2, §3, §4, §5, §6

SMILES strings stand for the structures.

Consider 17 compounds from US10336702B2, “Pharmaceutically active compounds” (BERGENBIO ASA, priority 2015, dated 2019).

T2 sequence (P31751 whole entry): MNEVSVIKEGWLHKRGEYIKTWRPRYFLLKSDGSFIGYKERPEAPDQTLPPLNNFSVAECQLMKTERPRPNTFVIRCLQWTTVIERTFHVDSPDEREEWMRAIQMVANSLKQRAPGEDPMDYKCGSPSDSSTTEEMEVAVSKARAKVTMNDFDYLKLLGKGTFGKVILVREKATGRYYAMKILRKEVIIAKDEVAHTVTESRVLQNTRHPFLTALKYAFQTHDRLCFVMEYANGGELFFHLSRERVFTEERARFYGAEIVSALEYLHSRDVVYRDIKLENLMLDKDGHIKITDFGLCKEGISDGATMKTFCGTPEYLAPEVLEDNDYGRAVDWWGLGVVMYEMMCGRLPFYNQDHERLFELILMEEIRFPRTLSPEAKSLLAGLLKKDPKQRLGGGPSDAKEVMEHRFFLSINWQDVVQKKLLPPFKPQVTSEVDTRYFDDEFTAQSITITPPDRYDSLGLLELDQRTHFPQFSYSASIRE
T3 sequence (Q9Y243 whole entry): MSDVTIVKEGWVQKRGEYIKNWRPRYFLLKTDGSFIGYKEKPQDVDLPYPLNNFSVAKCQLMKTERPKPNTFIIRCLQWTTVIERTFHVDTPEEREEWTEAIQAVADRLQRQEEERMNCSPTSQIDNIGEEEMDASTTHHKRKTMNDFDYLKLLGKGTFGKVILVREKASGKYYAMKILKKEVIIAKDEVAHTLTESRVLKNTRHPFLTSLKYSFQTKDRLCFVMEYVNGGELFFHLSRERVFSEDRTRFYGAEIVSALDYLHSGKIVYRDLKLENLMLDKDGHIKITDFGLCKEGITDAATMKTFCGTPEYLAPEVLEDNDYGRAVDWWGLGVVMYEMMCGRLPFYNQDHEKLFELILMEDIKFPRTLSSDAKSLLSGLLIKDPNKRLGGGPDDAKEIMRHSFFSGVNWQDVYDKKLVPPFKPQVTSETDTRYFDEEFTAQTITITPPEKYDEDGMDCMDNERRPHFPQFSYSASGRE
T1 sequence (P31749 whole entry): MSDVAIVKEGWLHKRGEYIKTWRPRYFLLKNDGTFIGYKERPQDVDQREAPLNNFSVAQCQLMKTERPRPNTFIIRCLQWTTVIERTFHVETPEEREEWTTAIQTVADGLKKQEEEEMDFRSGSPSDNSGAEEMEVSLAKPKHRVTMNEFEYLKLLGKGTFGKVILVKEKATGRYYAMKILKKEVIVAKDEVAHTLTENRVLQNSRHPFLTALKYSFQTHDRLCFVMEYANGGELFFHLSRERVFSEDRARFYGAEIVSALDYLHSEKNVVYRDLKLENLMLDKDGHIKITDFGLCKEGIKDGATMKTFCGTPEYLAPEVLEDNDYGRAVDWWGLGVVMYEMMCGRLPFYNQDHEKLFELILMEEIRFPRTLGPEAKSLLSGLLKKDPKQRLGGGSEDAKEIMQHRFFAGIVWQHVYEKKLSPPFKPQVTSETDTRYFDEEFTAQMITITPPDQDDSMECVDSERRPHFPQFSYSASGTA

Regarding `CN(C(=O)CC(C)(C)C)[C@H]1CC[C@H](CC(=O)Nc2cnc(-c3ccc(C(C)(C)N)cc3)c(-c3ccccc3)c2)CC1` [Example A30, N-(trans-4-(2-((6-(4-(2-aminopropan-2-yl)phenyl)-5-phenylpyridin-3-yl)amino)-2-oxoethyl)cyclohexyl)-N,3,3-trimethylbutanamide], the IC50 at Akt1 is > 30000 nM; at Akt2 it was 16000 nM; on Akt3 it was 290 nM.

For the compound `COC1CCC(CC(=O)Nc2cnc(-c3ccc(C4(N)COC4)cc3)c(-c3ccccc3)c2)CC1` (mixture of isomers) [Example 21, N-(6-(4-(3-aminooxetan-3-yl)phenyl)-5-phenylpyridin-3-yl)-2-(4-methoxycyclohexyl)acetamide], the IC50 at Akt1 is > 55000 nM; on Akt2, 1100 nM; at Akt3, 210 nM.

Take `CC(=O)N[C@H]1CC[C@H](CC(=O)Nc2cnc(-c3ccc([C@@H](C)N)cc3)c(-c3ccccc3)c2)CC1` [Example A9, 2-(trans-4-acetamidocyclohexyl)-N-(6-(4-((R)-1-aminoethyl)phenyl)-5-phenylpyridin-3-yl)acetamide]: the IC50 on Akt2 is 400 nM; at Akt3 it was 80 nM.

For `CC1(C(=O)N[C@H]2CC[C@H](CC(=O)Nc3cnc(-c4ccc(C(C)(C)N)cc4)c(-c4ccccc4)c3)CC2)CC1` [Example A21, N-(trans-4-(2-((6-(4-(2-aminopropan-2-yl)phenyl)-5-phenylpyridin-3-yl)amino)-2-oxoethyl)cyclohexyl)-1-methylcyclopropane-1-carboxamide], the IC50 on Akt1 is > 37000 nM; at Akt2, 4100 nM; at Akt3 it was 55 nM.

Consider `CC(C)(C(=O)N[C@H]1CC[C@H](CC(=O)Nc2cnc(-c3ccc(C4(N)CCC4)cc3)c(-c3cccnc3)c2)CC1)C(F)(F)F` [Example 20, N-(trans-4-(2-((2-(4-(1-aminocyclobutyl)phenyl)-[3,3′-bipyridin]-5-yl)amino)-2-oxoethyl)cyclohexyl)-3,3,3-trifluoro-2,2-dimethylpropanamide], for which the IC50 is > 30000 nM on Akt1, > 15000 nM on Akt2 and 6800 nM on Akt3.

In the case of `NC1(c2ccc(-c3ncc(NC(=O)C[C@H]4CC[C@H](NC(=O)C(F)F)CC4)cc3-c3ccccc3)cc2)CC1` [Example A42, N-(trans-4-(2-((6-(4-(1-aminocyclopropyl)phenyl)-5-phenylpyridin-3-yl)amino)-2-oxoethyl)cyclohexyl)-2,2-difluoroacetamide], the IC50 was found to be 6900 nM on Akt1, 810 nM at Akt2 and 280 nM on Akt3.

For `CC(C)(C(=O)N[C@H]1CC[C@H](CC(=O)Nc2cnc(-c3ccc(C4(N)COC4)cc3)c(-c3ccccc3)c2)CC1)C(F)(F)F` [Example A6, N-(trans-4-(2-((6-(4-(3-aminooxetan-3-yl)phenyl)-5-phenylpyridin-3-yl)amino)-2-oxoethyl)cyclohexyl)-3,3,3-trifluoro-2,2-dimethylpropanamide], the IC50 was > 30000 nM on Akt1, 1400 nM at Akt2 and 130 nM on Akt3.

On to `CC(C)(N)c1ccc(-c2ncc(NC(=O)C[C@H]3CC[C@H](NC(=O)C4CCC4)CC3)cc2-c2ccccc2)cc1` [Example A36, N-(trans-4-(2-((6-(4-(2-aminopropan-2-yl)phenyl)-5-phenylpyridin-3-yl)amino)-2-oxoethyl)cyclohexyl)cyclobutanecarboxamide], for which the values for the IC50 at Akt1, at Akt2 and on Akt3 were > 30000 nM, 6800 nM and 160 nM, respectively.

For `CN([C@H]1CC[C@H](CC(=O)Nc2cnc(-c3ccc(C4(N)CCC4)cc3)c(-c3ccccc3F)c2)CC1)S(C)(=O)=O` [Example A16, N-(6-(4-(1-aminocyclobutyl)phenyl)-5-(2-fluorophenyl)pyridin-3-yl)-2-(trans-4-(N-methylmethylsulfonamido)cyclo-hexyl)acetamide], the IC50 at Akt1 stood at 9800 nM; on Akt2, 260 nM; at Akt3, 210 nM.

On to `C[C@@H](N)c1ccc(-c2ncc(NC(=O)C[C@H]3CC[C@H](NC(=O)C(C)(C)C(F)(F)F)CC3)cc2-c2ccccc2)cc1` [Example A11, N-(trans-4-(2-((6-(4-((R)-1-aminoethyl)phenyl)-5-phenylpyridin-3-yl)amino)-2-oxoethyl)cyclohexyl)-3,3,3-trifluoro-2,2-dimethylpropanamide], for which the values for the IC50 at Akt2 and at Akt3 were 1500 nM and 880 nM, respectively.

As for `C[C@H](N)c1ccc(-c2ncc(NC(=O)C[C@H]3CC[C@H](NC(=O)C(C)(C)C(F)(F)F)CC3)cc2-c2ccccc2)cc1` [Example A10, N-(trans-4-(2-((6-(4-((S)-1-aminoethyl)phenyl)-5-phenylpyridin-3-yl)amino)-2-oxoethyl)cyclohexyl)-3,3,3-trifluoro-2,2-dimethylpropanamide], the values for the IC50 on Akt1, at Akt2 and on Akt3 were > 30000 nM, 18000 nM and 4600 nM, respectively.

For the compound `CC(C)(C)C(=O)N[C@H]1CC[C@H](CC(=O)Nc2cnc(-c3ccc(C4(N)CC4)cc3)c(-c3ccccc3)c2)CC1` [Example A43, N-(trans-4-(2-((6-(4-(1-aminocyclopropyl)phenyl)-5-phenylpyridin-3-yl)amino)-2-oxoethyl)cyclohexyl)pivalamide], the IC50 on Akt1 was > 22000 nM; at Akt2, 520 nM; at Akt3, 300 nM.

With `Cc1nncn1[C@H]1CC[C@H](CC(=O)Nc2cnc(-c3ccc(C(C)(C)N)cc3)c(-c3ccccc3)c2)CC1` [Example 23, N-(6-(4-(2-aminopropan-2-yl)phenyl)-5-phenylpyridin-3-yl)-2-(trans-4-(3-methyl-4H-1,2,4-triazol-4-yl)cyclohexyl)acetamide], the results for the IC50 on Akt1, at Akt2 and on Akt3 were > 30000 nM, 11000 nM and 430 nM, respectively.

For the compound `C[C@H](N)c1ccc(-c2ncc(NC(=O)C[C@H]3CC[C@H](N(C)S(C)(=O)=O)CC3)cc2-c2ccccc2)cc1` [Example A13, N-(6-(4-((S)-1-aminoethyl)phenyl)-5-phenylpyridin-3-yl)-2-(trans-4-(N-methylmethylsulfonamido)cyclo-hexyl)acetamide], the values for the IC50 on Akt1, on Akt2 and on Akt3 were > 30000 nM, 8100 nM and 830 nM, respectively.

Regarding `CC(=O)N[C@H]1CC[C@H](CC(=O)Nc2cnc(-c3ccc([C@]4(N)C[C@@H](O)C4)cc3)c(-c3ccccc3)c2)CC1` [Example 13, 2-(trans-4-acetamidocyclohexyl)-N-(6-(4-(trans-1-amino-3-hydroxycyclobutyl)phenyl)-5-phenylpyridin-3-yl)acetamide], the results for the IC50 on Akt2 and on Akt3 were 480 nM and 220 nM, respectively.

As to `CC(C)(C)C(=O)N[C@H]1CC[C@H](CC(=O)Nc2cnc(-c3ccc(C4(N)CCC4)cc3)c(-c3ccsc3)c2)CC1` [Example A40, N-(trans-4-(2-((6-(4-(1-aminocyclobutyl)phenyl)-5-(thiophen-3-yl)pyridin-3-yl)amino)-2-oxoethyl)cyclohexyl)pivalamide], the 50% inhibitory concentration (IC50) on Akt1 is > 27000 nM; at Akt2, 810 nM; on Akt3, 25 nM.

As to `CC(C)(C)C(=O)N[C@H]1CC[C@H](CC(=O)Nc2cnc(-c3ccc(C(C)(C)N)cc3)c(-c3ccccc3)c2)CC1` [Example A34, N-(trans-4-(2-((6-(4-(2-aminopropan-2-yl)phenyl)-5-phenylpyridin-3-yl)amino)-2-oxoethyl)cyclohexyl)pivalamide], the IC50 at Akt1 was > 30000 nM; at Akt3, 160 nM.
